Data taken from paper PMC8315922, “In Vitro Identification and In Vivo Confirmation of Inhibitors for Sweet Potato Chlorotic Stunt Virus RNA Silencing Suppressor, a Viral RNase III” (Journal of Virology, 2021).
Read-outs that look alike come from different tables or passages of the source.

What was measured:
[1] = target: T1, CSR3 (RNase III of SPCSV) (Sweet potato chlorotic stunt virus, UniProt Q8JJW8); experiment: Kinetic-based HTS (FRET, labeled 22-bp siRNA cleavage), one concentration; assay type: biochemical; conditions: compound 10 μM, 375 nM siRNA, 37°C
Text: Based on the catalytic activity of CSR3 on 22-bp siRNA, our kinetic-based HTS assay was designed using distance-dependent FRET technology. Specifically, one strand of siRNA, as a substrate, was labeled with a fluorescent dye (6-carboxyfluorescein [FAM]) at the 5′ end and a quencher (black hole quencher 1 [BHQ1]) at the 3′ end. The initial reaction rate of CSR3 was quantified using the slope of raw fluorescence under an excitation/emission spectrum at 485/520 nm (Fig. 3A). […] In this study, a total of 6,622 compounds (including 6,400 selected from Glide docking and 222 empirically selected compounds for preliminary assay setup) were screened using kinetic-based HTS at a final concentration of 10 μM. All 384-well screening plates contained 32 negative (with CSR3 [i.e., the substrate was successfully cleaved]) and 32 positive (without CSR3 [i.e., the substrate remained intact]) control reaction mixtures. To evaluate the quality of the HTS assay, the Z-factor (Z′) parameter was calculated using the reaction rates of the positive and negative controls ([30]). […]
The HTS assay was designed based on FRET using a 22-bp siRNA (forward sequence, […]; reverse sequence, […]) with a 2-nucleotide (nt) 3′ overhang labeled with the fluorescent dye 6-carboxyfluorescein (FAM) and a black hole quencher (BHQ1) on the sense strand (Metabion, Munich, Germany). […] The plates were read with a PHERAstar FS reader (BMG Labtech, Ortenberg, Germany).
(§1) For HTS, the activity of CSR3 was calculated by measuring the change in fluorescence as a function of the reaction time using MARS Data Analysis software (BMG Labtech). To evaluate the CSR3 inhibition efficiency of individual compounds, the PI of each compound was calculated using the slope values for the sample, positive control, and negative control according to the following equation: PI = 100 × [1 − (sample − positive)/(negative − positive)]%. IC50 and DSS values were calculated using concentration-specific PI values according to a previous study ([31]). Relative gene expression was calculated using the classical 2^−ΔΔ^CT method ([63]).

[2] = target: T1, CSR3 (RNase III of SPCSV); experiment: Kinetic-based FRET dose-response assay (IC50, DSS); assay type: biochemical; conditions: for IC50: 1.25 nM to 50 μM, unit inferred
Experimental: A dose-response assay with six concentrations (1.25 nM to 50 μM) was carried out in three independent experiments, which included two tests with the 112 selected FIMM compounds (i.e., compounds prepared by the HTB-FIMM) and one test using the newly ordered commercial compounds (99 of the 112 compounds, i.e., compounds prepared by a second supplier). A dose-response curve was generated for each compound based on PI values as a function of the concentration.
The HTS assay was designed based on FRET using a 22-bp siRNA (forward sequence, […]; reverse sequence, […]) with a 2-nucleotide (nt) 3′ overhang labeled with the fluorescent dye 6-carboxyfluorescein (FAM) and a black hole quencher (BHQ1) on the sense strand (Metabion, Munich, Germany). Screening was initially carried out at one concentration (10 μM) in a 20-μl reaction buffer. […] All reaction mixtures contained 50 nM CSR3 and 375 nM labeled siRNA in 384-well black flat-bottom microplates (Corning, NY, USA) and were prepared using a BioTek MultiFlo FX dispenser with single-channel random access dispenser cassettes (BioTek, Winooski, VT, USA). The plates were read with a PHERAstar FS reader (BMG Labtech, Ortenberg, Germany).
as §1

CSR3 [3] = target: T2, CSR3 (Sweet potato chlorotic stunt virus, UniProt Q8JJW8); experiment: Binding affinity assay using MST; conditions: Table S4
T2 sequence (Q8JJW8 1-228): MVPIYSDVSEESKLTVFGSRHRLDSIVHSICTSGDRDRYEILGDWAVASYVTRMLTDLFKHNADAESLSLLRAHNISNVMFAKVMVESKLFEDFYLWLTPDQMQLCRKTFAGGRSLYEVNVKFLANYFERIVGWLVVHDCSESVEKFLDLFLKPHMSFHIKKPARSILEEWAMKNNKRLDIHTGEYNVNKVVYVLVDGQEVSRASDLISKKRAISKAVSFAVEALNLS
Experimental: (§2) Binding affinity assays were first carried out with the 99 commercial compounds using the MST method.
The labeled-protein solution containing 500 nM proteins and 40 nM dye was prepared in PBS buffer with 2% dimethyl sulfoxide (DMSO) for the assay. The 12 concentrations for each compound were obtained by 2-fold serial dilutions (0.2 μM to 400 μM). […] Two independent experiments were carried out in premium coated capillaries (NanoTemper, Munich, Germany) using a Monolith NT.Automated instrument (NanoTemper) with the power set at high (80%), the light-emitting diode (LED) power (pico red) set at 5%, and the on-time set at 20 s. The dissociation constant (Kd) was determined using the MO.Affinity Analysis program (NanoTemper).

CSR3 [4] = target: T2, CSR3; experiment: Binding affinity assay using SPR; conditions: SPR dose-response 3 μM to 200 μM, 25°C; unit inferred, numbers match M (cf. Fig 5A); read-out: Steady State Affinity
Experimental: as §2
CSR3 was purified as described above and stored in PBS buffer. SPR was performed on a BiacoreT100 instrument (GE Healthcare) using a sensor S CM5 chip (GE Healthcare). CSR3 (10 ng/μl) was immobilized using the standard amine-coupling method according to the manufacturer’s instructions with immobilization buffer (10 mM sodium acetate [pH 4]); the final response unit (RU) value was 11,459. Compounds at a single concentration (100 μM) or consisting of 2-fold serial dilutions (3 μM to 200 μM) were flowed over the sensor surface using PBS buffer with 0.01 M HEPES, 0.05% surfactant P20, and 2% DMSO. […] To eliminate bulk interference by DMSO, a solvent correction consisting of DMSO at concentrations ranging from 1.5% to 2.8% was carried out for every 30 samples. Steady-state affinity (KD) values were determined using BiacoreT100 Evaluation software, v.2.04 (GE Healthcare).

[5] = target: RNase III of Sweet potato chlorotic stunt virus (CSR3), His-tagged full-length (Sweet potato chlorotic stunt virus (SPCSV)); experiment: native gel or EMSA; native Western blotting of purified CSR3, detected with rabbit polyclonal antibodies against CSR3; monomer to dimer

Row | Molecule | PI values (percentage of inhibition) [1] [%] | DSS Comm 1 ([2]; drug sensitivity score, repeat Comm 1) | DSS FIMM1 ([2]; drug sensitivity score, repeat FIMM 1) | DSS FIMM 2 ([2]; drug sensitivity score, repeat FIMM 2) | IC50 ([2]; repeat Comm 1 (commercial compounds), numbers match nM, read-out: IC50 Comm 1) [nM] | IC50 ([2]; repeat FIMM 1 (FIMM library compounds), numbers match nM (cf. Fig 5A), read-out: IC50 FIMM1) [nM] | IC50 ([2]; repeat FIMM 2 (FIMM library compounds), numbers match nM, read-out: IC50 FIMM 2) [nM] | Binding (Yes/No) (CSR3 [3]; MST binding call) | Response Amplitude (CSR3 [3]; MST response amplitude) | Kd (CSR3 [4]) [µM] | stoichiometry N [5]
1 | Cc1ccc(C)c(C(=O)CSc2nnc[nH]2)c1 [FIMM027745] | 98.0616 | 1.9 | 19.2 | 16.7 | 14900 | 647 | 1120 | No | 0 | 13 | 
2 | RNase III of Sweet potato chlorotic stunt virus (CSR3), His-tagged full-length (enzyme) |  |  |  |  |  |  |  |  |  |  | 2
